According to patent US4786651A, “Treatment of cutaneous hyperproliferative dermatoses with manoalide” (Allergan, Inc., priority 1986, dated 1988):

How the values were obtained:
[1] = tested on: humans; conditions: cited from earlier work
[2] = tested on: ODC; conditions: tape-stripped mouse epidermis; M. Connor and N. Lowe 1983; cited from earlier work
[3] = tested on: ornithine decarboxylase (ODC); experiment: Tape-stripped epidermal ODC activity in female hairless mice (In Vivo Assay); set-up: species or system mouse (female hairless mice)
Source text: (§1) Tape-stripping mouse epidermis is quick and convenient method of inducing ODC activity that avoids the necessity of handling carcinogens. M. Connor and N. Lowe (J. Invest. Dermatol 43, 5174, 1983) have studied the ability of retinoids to inhibit ODC. […] In vitro methods have also been useful in determining the anti-hyperproliferative activity of drugs. C. Marcelo and J. Tomich (J. Invest. Dermatol. 81, 64s, 1983) have shown that neonatal mouse keratinocyte cultures can be used to identify drugs that inhibit DNA synthesis. More recently, R. Weiss, Eichner, R. and Sunn, T. T, J. Cell Biol., 98: 1397-1406, (1984) have shown that epidermal cultures are in fact, a model of epidermal hyperproliferation and therefore a good model for testing drugs that inhibit hyperporliferation.
Female hairless mice were tape-stripped and ODC activity determined according to the method of M. Connor and N. Lowe (J. Invest. Dermatol. 43, 5174, 1983).
**50 mg/kg; IP, 30 min before tapestripping

[4] = tested on: keratinocytes; experiment: Inhibition of DNA synthesis in neonatal mouse keratinocyte cultures (3H-thymidine; In Vitro Assay); format: cell-based, mouse (neonatal balb/c); conditions: daily drug for three days; FIG. 2
Source text: as §1
Keratinocytes from 1-2 day old neonatal balb/c mice were used. Cells were plated in 35 mm culture dishes in M199 medium containing 10% FCS and incubated at 37° C. in 5% CO2. Cells were allowed to reach confluency at which time 0.01, 0.1, 1.0, 10 and 20 μM manoalide was added in DMSO. Fresh media and drug were added each day to culture for three days. On the fourth day cells were pulsed with ^3 H-thymidine (1 µCi/ml) to determine how much manoalide inhibited DNA syntheses (CPM/μg DNA).

Structure (SMILES)	therapeutic activity in humans [1]	inhibition of ODC [2]	% Inhibition (ODC) ([3]; 50 mg/kg, IP, 30 min before tapestripping, p < .05)	ODC ([3]; 50 mg/kg, IP, 30 min before tapestripping, vehicle (soybean oil) 6.1 ± 1.2)	inhibition of tape-stripped ODC after systemic administration ([3]; systemic administration)	inhibition of keratinocyte DNA synthesis [4]
CC1=C(/C=C/C(C)=C/C=C/C(C)=C/C(=O)O)C(C)(C)CCC1 [Trans-retinoic acid]	therapeutically active in humans	active at inhibiting ODC	–	–	–	–
CC1=C(CC/C(C)=C/CCC2=CCC(C3=CC(=O)OC3O)OC2O)C(C)(C)CCC1 (stereo not shown) [Manoalide]	–	–	54%	2.8 ± 0.6 nmoles ^14 CO2 (mg protein/mg protein/hr)	can also inhibit tape-stripped ODC	inhibit keratinocyte DNA synthesis in a dose related fashion
CCOC(=O)/C=C(C)/C=C/C=C(C)/C=C/c1c(C)cc(OC)c(C)c1C [etretinate]	therapeutically active in humans	active at inhibiting ODC	–	–	–	–
CC1=C(/C=C/C(C)=C/C=C/C(C)=C\C(=O)O)C(C)(C)CCC1 [13-cis retinoic acid]	therapeutically active in humans	active at inhibiting ODC	–	–	–	–
